Reference: patent US7816323B2, “Methods of using corticotropin-releasing factor for the use of the treatment of cancer” (priority 2008, dated 2010)

Experiments:
[1] = system: human glioblastoma cell line U87 Flue; test: Brain tumor-bearing SCID mice (U87 Flue glioblastoma), 80-day survival and tumor progression study
Text: The U87 Flue cell line was created by stably transducing U87 cells with a lentiviral construct containing the luc gene.

[2] = system: malignant brain tumor; test: Clinical study of CRF in patients with malignant brain tumor (tumor size by MRI, survival); format: in vivo, human
Method: Patients with malignant brain tumor were treated with 2 mg/day (1 mg dose, twice daily) of either human CRF subcutaneously. […] Additionally, of the 30 patients who had received treatment for at least 6 months, 10 experienced a decrease in tumor size.

[3] = system: peritumoral edema; conditions: patients with peritumoral edema; cited from earlier work
[4] = high dose of CRF, 80-day study period

For O=NN(CCCl)C(=O)NCCCl [BiCNU, reference compound], the “brain tumor growth / response to treatment (photon emission)” value ([1]; chemotherapeutic agents, TMZ: all mice but one) was “continued to grow”.
With Cn1nnc2c(C(N)=O)ncn2c1=O [TMZ, reference compound] the “mice still alive at the end of the 80-day study period” value ([1]; TMZ-treated mice) was 40%.
With “CRF: endogenous 41 amino acid peptide, the major hypothalamic hormone responsible for stimulation of the pituitary-adrenal axis” the “survival over the 80-day study period” value ([1]; high dose of CRF, 100 μg/kg s.c. twice daily, all mice) was “survived the entire 80-day study period”, the “brain tumor progression (luminescence imaging)” value [1, 4] was “did not progress during the 80-day study period” and the “health appearance of the mice during the study” value [1, 4] was “appeared healthy throughout”. The “brain tumor progression (luminescence imaging)” value ([1]; low dose of CRF) was “did not progress or progressed more slowly”, the mean survival time ([1]; low dose of CRF) was “between mice, that were administered a high dose of CRF, and mice that had received no treatment or were administered dexamethasone” and the “mice still alive at the end of the 80-day study period” value ([1]; low dose of CRF) was 60%. The “patients exhibiting a reduction in tumor size of around 90%” value ([2]; FIG. 2 patients, 2 mg/day s.c.) was “two”, the “survival of some patients after CRF treatment” value ([2]; FIGS. 1 and 2) was 1-2 years and the “survival of the overwhelming majority of patients” value ([2]; FIGS. 1 and 2, projected survival 3-6 months) was “live well beyond the projected 3-6 months”. For the same compound, the “metastatic patients exhibiting survival beyond the projected 3-6 months” value ([2]; of the 3 metastatic patients in FIG. 3) was 3 patients, the “metastatic patients showing a reduction in tumor size at the last timepoint measured” value ([2]; of the 3 metastatic patients in FIG. 3, 2 mg/day s.c.) was 2 patients and the “patients exhibiting a reduction in tumor size at the last time point measured” value ([2]; of the 10 patients in FIG. 2, 2 mg/day s.c.) was 8 patients. For the same compound, the “patients exhibiting a maintenance in tumor size” value ([2]; of the 20 patients in FIG. 1, 2 mg/day s.c.) was 5 patients, the “patients exhibiting a reduction in tumor size” value ([2]; of the 20 patients in FIG. 1, 2 mg/day s.c. (1 mg twice daily)) was 6 patients and the “patients exhibiting a reduction in tumor size by over 50%” value ([2]; of the 20 patients in FIG. 1, after 9 months of treatment, 2 mg/day s.c.) was 3 patients. The “patients experiencing a decrease in tumor size” value ([2]; of the 30 patients treated for at least 6 months) was 10 patients.
For corticorelin acetate, the exposure to dexamethasone [3] is given as “reduced exposure to dexamethasone” and the steroid-related side effects [3] is given as “improvement in steroid-related side effects”.
